Laboratory results published in the NIST ThermoML archive (doi:10.1016/j.fluid.2004.09.013).

Details: for mass density: Fluid (supercritical or subcritical phases), Vibrating tube method; for vapor or sublimation pressure: Liquid

C/C=C/C [(E)-2-butene]
Details	mass density [kg/m3]
328.22 K, 39992 kPa	620.09
333.22 K, 1143 kPa	554.92
333.22 K, 5001 kPa	564.29
333.22 K, 9997 kPa	574.58
333.22 K, 15004 kPa	583.44
333.22 K, 19992 kPa	591.23
333.22 K, 25005 kPa	598.27
333.22 K, 30004 kPa	604.66
333.22 K, 35005 kPa	610.54
333.22 K, 39985 kPa	615.98
338.22 K, 1226 kPa	548.04
338.22 K, 4986 kPa	557.85
338.22 K, 10000 kPa	568.81
338.22 K, 15000 kPa	578.1
338.22 K, 20000 kPa	586.27
338.22 K, 25000 kPa	593.57
338.22 K, 29994 kPa	600.18
338.22 K, 35008 kPa	606.28
338.22 K, 39996 kPa	611.89
343.22 K, 1315 kPa	540.98
343.22 K, 29988 kPa	595.68
343.22 K, 34990 kPa	601.95
343.22 K, 39986 kPa	607.75
343.23 K, 4999 kPa	551.32
343.23 K, 10003 kPa	562.95
343.23 K, 14999 kPa	572.73
343.23 K, 19997 kPa	581.25
343.23 K, 25007 kPa	588.85
348.23 K, 1414 kPa	533.71
348.23 K, 4992 kPa	544.57
348.23 K, 10005 kPa	556.98
348.23 K, 14992 kPa	567.27
348.23 K, 19998 kPa	576.19
348.23 K, 25013 kPa	584.1
348.23 K, 29992 kPa	591.18
348.23 K, 35003 kPa	597.68
348.23 K, 39996 kPa	603.63
353.23 K, 1522 kPa	526.23
353.23 K, 4999 kPa	537.68
353.23 K, 9984 kPa	550.87
353.23 K, 14991 kPa	561.76
353.23 K, 20002 kPa	571.1
353.23 K, 25003 kPa	579.31
353.23 K, 30000 kPa	586.67
353.23 K, 35004 kPa	593.37
353.23 K, 39995 kPa	599.51
358.23 K, 1641 kPa	518.52
358.23 K, 4984 kPa	530.51
358.23 K, 10005 kPa	544.73
358.23 K, 14998 kPa	556.2
358.23 K, 20004 kPa	565.97
358.23 K, 24987 kPa	574.48
358.23 K, 29994 kPa	582.12
358.23 K, 35007 kPa	589.05
358.23 K, 39996 kPa	595.37
363.23 K, 1765 kPa	510.53
363.23 K, 5001 kPa	523.21
363.23 K, 9988 kPa	538.37
363.23 K, 14981 kPa	550.47
363.23 K, 19993 kPa	560.72
363.23 K, 25001 kPa	569.62
363.23 K, 30001 kPa	577.52
363.23 K, 34991 kPa	584.64
363.23 K, 40008 kPa	591.18
368.24 K, 1900 kPa	502.25
368.24 K, 4996 kPa	515.59
368.24 K, 9996 kPa	531.94
368.24 K, 14998 kPa	544.78
368.24 K, 19997 kPa	555.48
368.24 K, 25002 kPa	564.74
368.24 K, 29994 kPa	572.92
368.24 K, 35003 kPa	580.31
368.24 K, 39988 kPa	587
373.23 K, 2021 kPa	493.52
373.23 K, 4987 kPa	507.69
373.23 K, 9991 kPa	525.4
373.23 K, 14991 kPa	538.98
373.23 K, 19999 kPa	550.26
373.24 K, 24990 kPa	559.83
373.24 K, 29992 kPa	568.32
373.24 K, 34981 kPa	575.91
373.24 K, 39982 kPa	582.83
378.24 K, 2209 kPa	484.69
378.24 K, 5019 kPa	499.59
378.24 K, 10006 kPa	518.69
378.24 K, 14990 kPa	533.06
378.24 K, 20005 kPa	544.87
378.24 K, 25019 kPa	554.94
378.24 K, 30003 kPa	563.71
378.24 K, 34996 kPa	571.57
378.24 K, 40001 kPa	578.7
383.24 K, 2379 kPa	475.33
383.24 K, 5004 kPa	490.95
383.24 K, 10000 kPa	511.79
383.24 K, 14991 kPa	527.07
383.24 K, 19991 kPa	539.46
383.24 K, 24987 kPa	549.92
383.24 K, 30002 kPa	559.07
383.24 K, 34999 kPa	567.19
383.24 K, 39984 kPa	574.5
388.24 K, 2560 kPa	465.51
388.24 K, 4995 kPa	481.89
388.24 K, 9989 kPa	504.7
388.24 K, 15004 kPa	521.06
388.24 K, 20002 kPa	534.05
388.24 K, 25003 kPa	544.95
388.24 K, 29994 kPa	554.4
388.24 K, 34999 kPa	562.8
388.24 K, 39985 kPa	570.33

Details	vapor or sublimation pressure [kPa]
336.87 K	680.67
345.89 K	842.53
354.94 K	1035.4
363.31 K	1235
372.35 K	1486.5
376.81 K	1618.2
381.64 K	1778.4
385.75 K	1920.4
